In patent US20060160879A1, “Indoles useful in the treatment of inflammation” (priority 2003, published 2006):

Molecular target: T1, mPGES-1 (Homo sapiens, UniProt O14684)
T1 construct: made in house; host or cells: E. coli (membrane fraction)
T1 sequence (O14684 1-152): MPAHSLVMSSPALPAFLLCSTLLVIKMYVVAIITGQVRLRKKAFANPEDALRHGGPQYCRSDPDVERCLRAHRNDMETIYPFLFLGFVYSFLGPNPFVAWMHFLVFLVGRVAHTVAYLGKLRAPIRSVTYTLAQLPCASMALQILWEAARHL
Assay: mPGES-1 assay: conversion of PGH2 to PGE2, PGE2 analysed by HPLC
Format: biochemical
Parameters: dose or concentration left out as unconfirmed
Description: In the assay mPGES-1 catalyses the reaction where the substrate PGH2 is converted to PGE2. mPGES-1 is expressed in E. coli and the membrane fraction is dissolved in 20 mM NaPi-buffer pH 8.0 and stored at −80° C. In the assay mPGES-1 is dissolved in 0.1M KPi-buffer pH 7.35 with 2.5 mM glutathione. The stop solution consists of H2O/MeCN (7/3), containing FeCl2 (25 mM) and HCl (0.15 M). The assay is performed at room temperature in 96-well plates. Analysis of the amount of PGE2 is performed with reversed phase HPLC (Waters 2795 equipped with a 3.9×150 mm C18 column). The mobile phase consists of H2O/MeCN (7/3), containing TFA (0.056%), and absorbance is measured at 195 nm with a Waters 2487 UV-detector.
The following is added chronologically to each well: • 1. 100 μL mPGES-1 in KPi-buffer with glutathione. Total protein concentration: 0.02 mg/mL. • 2. 1 μL inhibitor in DMSO. Incubation of the plate at room temperature for 25 minutes. • 3. 4 μL of a 0.25 mM PGH2 solution. Incubation of the plate at room temperature for 60 seconds. • 4. 100 μL stop solution. • 180 μL per sample is analyzed with HPLC.

SMILES	inhibition of mPGES-1
CC(C)(C)c1ccc(-c2ccc3c(-c4ccccc4)c(C(=O)O)n(Cc4cccc(Oc5ccccc5)c4)c3c2)cc1 [Example 1, 6-(4-tert-Butylphenyl)-1-(3-phenoxybenzyl)-3-phenylindole-2-carboxylic acid]	96%
CC(C)(C)c1ccc(-c2ccc3c(-c4cccs4)c(C(=O)O)n(Cc4cccc(Oc5ccccc5)c4)c3c2)cc1 [Example 2, 6-(4-tert-Butylphenyl)-1-(3-phenoxybenzyl)-3-(2-thienyl)indole-2-carboxylic acid]	100%
O=C(O)c1c(-c2ccccc2)c2cc(-c3ccc4c(c3)OCO4)ccc2n1CCCc1ccccc1 [Example 3, 5-(3,4-Methylenedioxyphenyl)-3-phenyl-1-(3-phenylpropyl)indole-2-carboxylic acid]	85%

Other lines, results leading:

inhibition of mPGES-1	SMILES
81%	O=C(O)c1c(-c2ccccc2)c2cc(-c3cccnc3)ccc2n1CCCc1ccccc1 [Example 4, 3-Phenyl-1-(3-phenylpropyl)-5-(3-pyridyl)indole-2-carboxylic acid]
93%	O=C(O)c1cccc(-c2c(C(=O)O)n(Cc3cccc([N+](=O)[O-])c3)c3cc(-c4ccc(OCc5ccccc5)cc4)ccc23)c1 [Example 5, 6-(4-Benzyloxyphenyl)-3-(3-carboxyphenyl)-1-(3-nitrobenzyl)indole-2-carboxylic acid]
100%	O=C(O)c1cccc(-c2c(C(=O)O)n(Cc3cccc(C(F)(F)F)c3)c3cccc(-c4ccccc4)c23)c1 [Example 6, 3-(3-Carboxyphenyl)-4-phenyl-1-[3-(trifluoromethyl)benzyl]indole-2-carboxylic acid]
